Experiments:
[1] = test system: lipase in the small intestines; conditions: background statement; cited from earlier work
GABAB receptor = assay: Expression of GABAB receptor in the hypothalamus by Western blotting; type: in vivo, rat; conditions: rats administered anthocyanin orally, 40 days, versus control; Western blot densitometry
Protocol: To examine the effect of an obesity prevention and treatment agent on the expression of GABAB receptor, the animals maintained as in Example 1 were collectively sacrificed at 10:00 AM 40 days after the oral administration, and the hypothalamus was excised from each of them. The hypothalamic sample was homogenized in 0.2 M PBS containing a protease inhibitor cocktail. Protein levels were measured using a Bio-Rad protein analysis solution, and after two rounds of ultracentrifugation at 4° C. and 12,000 rpm for 20 min, the supernatants containing proteins were separated. […] This membrane was blocked with 5% (v/v) skim milk to reduce non-specific binding, and incubated with a primary goat anti-GABABR1 antibody (1:200; Santa Cruz Biotechnology, Santa Cruz, Calif., USA) and an anti-beta-actin antibody for quantitative comparison, followed by immune reaction with a secondary HRP (horseradish peroxidase)-conjugated anti-goat and anti-rabbit IgG (1:1000; Santa Cruz Biotechnology, Santa Cruz, Calif., USA). Protein levels were determined by chemiluminescence using ECL-detecting reagent (Amersham Pharmacia Biotech, Western blotting detection reagents). Western blots on the X-ray film were analyzed by densitometry using computer-based Sigma Gel (SPSS Inc. Chicago, USA), and the results are shown in FIG. 3.

neuropeptide Y = assay: Expression of neuropeptide Y in the hypothalamus by Western blotting; type: in vivo, rat; conditions: oral anthocyanin 24 mg, 40 days, versus control; Western blot
[2] = test system: epididymal white adipose tissue; assay: Epididymal white adipose tissue adipocyte number per unit area (hematoxylin-eosin staining); type: in vivo, rat; conditions: epididymal WAT, 40 days, control 18.75
Protocol: For hematoxylin-eosin staining, an epididymal white adipose tissue (WAT) was fixed at 4° C. for 72 hrs in ice-chilled 1× PBS containing 4% para-formaldehyde, and immersed at 4° C. for 72 hrs in 20% sucrose sucrose phosphate buffer for cryoprotection. The fixed tissue was frozen with O.C.T compound (A. O. USA), and 10 μm coronal sections were made in coronal planes (Leica cryostat CM 3050, Germany). The sections were mounted on a probe-on, positively charged slide at room temperature and stored at −70° C. until use.
The animals bred as in Example 1 were collectively sacrificed at 10:00 AM 40 days after the oral administration, and epididymal white adipose tissue (WAT) was excised from each sacrificed animal and used for comparison of obesity. The epididymal WAT was fixed at 4° C. for 72 hrs in ice-chilled 1× PBS containing 4% para-formaldehyde, and immersed at 4° C. for 72 hrs in a 20% sucrose phosphate buffer for cryoprotection. The fixed tissue was frozen with O.C.T compound (A. O. USA), and 10 μm coronal sections were made in coronal planes (Leica cryostat CM 3050, Germany). The sections were mounted on probe-on, positively charged slides and thawed at room temperature for 3 hrs. […] Cover slips were mounted on the slides which were observed under a […] at 400× magnification.

PKA-α = assay: Expression of PKA-α in the hypothalamus by Western blotting; type: in vivo, rat; conditions: oral anthocyanin 24 mg, 40 days, versus control; Western blot
[3] = Body weight change and daily food uptake in rats orally administered anthocyanin for 40 days; type: in vivo, rat; conditions: for weight increase: male Sprague-Dawley rats, control 79.33 g; for weight increase / weight at end of period: 40 days; for weight at end of period: control 116.33 g
Protocol: For use in assay for the preventive and therapeutic effect of anthocyanin on obesity, male Sprague-Dawley rats, 60 days old (the Experimental Animal Breeding Center of the Gyeongsang National University, Jinju, Korea)) were divided groups of four which were then orally administered with anthocyanin at a dose of 6 mg and 24 mg, respectively, or not administered with anthocyanin for a control. They were maintained for 40 days in a temperature-controlled condition with lighting 06:00-20:00. While being maintained, the rats in each group were monitored for weight change and daily food uptake, and the results are shown in FIG. 1.

p-CREB = assay: Expression of p-CREB in the hypothalamus by Western blotting; type: in vivo, rat; conditions: oral anthocyanin 24 mg, 40 days, versus control; Western blot

Molecule	reduction of fat absorption [1]	expression level of GABAB receptor in the hypothalamus (GABAB receptor)	expression level of neuropeptide Y in the hypothalamus (neuropeptide Y)	number of adipocytes per unit area ([2]; oral anthocyanin 6 mg) [cells/250 mm^2]	number of adipocytes per unit area ([2]; oral anthocyanin 24 mg) [cells/250 mm^2]	expression level of PKA-α in the hypothalamus (PKA-α)	weight increase ([3]; oral anthocyanin 6 mg) [g]	weight increase ([3]; oral anthocyanin 24 mg) [g]	weight at end of period ([3]; oral anthocyanin 6 mg, from 32.33 g) [g]	weight at end of period ([3]; oral anthocyanin 24 mg, from 28.33 g) [g]	daily food uptake ([3]; oral anthocyanin 24 mg, control 20.03 g) [g]	expression level of p-CREB in the hypothalamus (p-CREB)
CCCCCCCCCCC[C@@H](C[C@@H]1OC(=O)[C@H]1CCCCCC)OC(=O)[C@H](CC(C)C)NC=O [Orlistat]	about 30%	–	–	–	–	–	–	–	–	–	–	–
anthocyanin	–	increased	decreased	22.47	22.8	decrease	69	69.67	101.33	98	16.43	increase

Reference: patent US20140162968A1, “METHOD FOR SCREENING OF AGENT FOR TREATING OR PREVENTING OBESITY” (priority 2011, published 2014)
